From ChEMBL document CHEMBL1201862, “PubChem BioAssay data set” (2004)
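Interpolation was linear, between the two tested concentrations surrounding the appropriate level; five concentrations were tested over 48 hours in 96-well plates. At the GI50, growth is halved.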 Active and inactive are the calls of the source. Rule as the data show it: active = GI50 up to about 1.1 µM and inactive = higher.

How the values were obtained:
Experiment in all cases: inhibition of tumour cell growth, NCI panel, 48 h
EKVX = system: EKVX
LOX IMVI = system: LOX IMVI
HT-29 = system: HT-29
OVCAR-3 = system: OVCAR-3
NCI-H460 = system: NCI-H460
SNB-75 = system: SNB-75
NCI/ADR-RES = system: NCI/ADR-RES
HCT-116 = system: HCT-116
HCT-15 = system: HCT-15
UACC-257 = system: UACC-257
UACC-62 = system: UACC-62
DU-145 = system: DU-145
MCF7 = system: MCF7
SK-MEL-5 = system: SK-MEL-5
SF-539 = system: SF-539
MDA-MB-231 = system: MDA-MB-231
BT-549 = system: BT-549
HOP-92 = system: HOP-92
Malme-3M = system: Malme-3M
SNB-19 = system: SNB-19

Structure (SMILES) | GI50 (EKVX) | GI50 (LOX IMVI) | GI50 (HT-29) | GI50 (OVCAR-3) | GI50 (NCI-H460) | GI50 (SNB-75) | GI50 (NCI/ADR-RES) | GI50 (HCT-116) | GI50 (HCT-15) [µM] | GI50 (UACC-257) | GI50 (UACC-62) | GI50 (DU-145) | GI50 (MCF7) | GI50 (SK-MEL-5) | GI50 (SF-539) | GI50 (MDA-MB-231) | GI50 (BT-549) | GI50 (HOP-92) | GI50 (Malme-3M) | GI50 (SNB-19)
CN(C)CCCN1c2ccc(O)cc2Sc2ccc(Cl)cc21 [7-HYDROXYCHLORPROMAZINE] | 18.4 µM (inactive) | 6.71 µM (inactive) | 3.48 µM (inactive) | 11.8 µM (inactive) | 3.82 µM (inactive) | 8.63 µM (inactive) | 14.7 µM (inactive) | 6.3 µM (inactive) | 14.2 | 1.71 µM (inactive) | 9.91 µM (inactive) | 17.9 µM (inactive) | 13.2 µM (inactive) | 13.8 µM (inactive) | 14.6 µM (inactive) | 10.9 µM (inactive) | 12.4 µM (inactive) | 4.25 µM (inactive) | 10.3 µM (inactive) | 13.3 µM (inactive)
COC1=CC(=O)c2c(O)c3c(c(O)c2C1=O)CC(C)(O)OC3 (stereo not given) [FUSARUBIN] | 5.32 µM (inactive) | 2.59 µM (inactive) | 2.12 µM (inactive) | 0.906 µM (active) | 1.18 µM (inactive) | 16.1 µM (inactive) | 2.56 µM (inactive) | 2.96 µM (inactive) | 1.58 | 2.02 µM (inactive) | 2.07 µM (inactive) | 3.97 µM (inactive) | 1.34 µM (inactive) | 1.16 µM (inactive) | 3.33 µM (inactive) | 2.84 µM (inactive) | 6.44 µM (inactive) | 2.88 µM (inactive) | 0.653 µM (active) | 3.27 µM (inactive)
